From patent publication US5914244A, “UL97 fusion proteins and methods of use” (priority 1997, dated 1999)
Like-named read-outs stand apart in the source and are kept apart here.

Columns and labels:
[1] = target: T1, GST-UL97 fusion protein (glutathione-S-transferase fused to wild-type UL97 protein kinase of CMV strain AD169) (Human cytomegalovirus, UniProt P16788); assay: biochemical; assay type: biochemical; conditions: for inhibition at 10 µM: read-out: reduction / inhibition of histone phosphorylation
T1 construct: degradation products of the full length GST-UL97 fusion proteins; made in house; host or cells: Spodoptera frugiperda Sf21 cells infected with recombinant baculovirus BVGSTUL97
Description: (§1) Protein samples were added to 20 μl of reaction buffer containing 50 mM Tris HCl pH 9.0, 10 mM MgCl2, 5 μM ATP, 2 mM DTT, 1 M NaCl and 5 μCi γ^32 P-ATP (unless otherwise stated). After incubation at 37° C. for 30 min (unless otherwise stated), the reactions were terminated by addition of 20 μl of 2× Laemmli sample buffer to the sample and boiling for 3 min. Phosphorylated proteins were resolved by electrophoresis on 10% SDS-PAGE gels and detected by autoradiography. In order to quantitate the level of phosphorylation, the region of the gel corresponding to the labelled protein was excised and the Cerenkov radioactivity was counted. For assay of extracts of insect cells infected with BVUL97 and related recombinant viruses, 2×10^7 infected or mock-infected cells were broken by sonication in 1 ml of ice-cold lysis buffer B (50 mM Tris-HCl pH 7.6, 100 mM NaCl, 5 mM MgCl2, 0.1% NP-40, 10% glycerol, […] and 1 mM PMSF). Insoluble material was removed by centrifugation at 12,000×g for 5 minutes.
Exogenous UL97 substrates identified in the substrate assay are used to detect agents which affect UL97 protein kinase activity. […] In a typical reaction, 0.8 μg/μl histone was dissolved in 20 μl reaction buffer, and the reaction was initiated by addition of 1.9 ng/μl GST-UL97. Following a 30 min incubation at 37° C., the reaction was terminated by the addition of 2× Laemmli sample buffer to the sample and boiling for 3 min. Proteins were separated on 15% SDS-PAGE gels, and phosphorylation was detected by autoradiography.
In this assay, an agent which may be an inhibitor or an activator of UL97 is added to the phosphorylation reaction, and the reaction is allowed to proceed. The amount of phosphorylation is then measured, to see if the agent increases or decreases UL97-mediated histone phosphorylation.

[2] = target: T1, GST-UL97 fusion protein (glutathione-S-transferase fused to wild-type UL97 protein kinase of CMV strain AD169); assay: GST-UL97 autophosphorylation protein kinase assay (Km by Lineweaver-Burk plot); assay type: biochemical
Description: as §1
The Michaelis or apparent dissociation constant (Km) for GST-UL97 was determined using a Lineweaver-Burk plot. Kinase reactions (enzyme concentration, 4.7 ng/μl) were carried out in 200 μl standard assay buffer. […] Radiolabelled GST-UL97 was separated on 10% SDS-PAGE gels and quantified by Cerenkov count. […]

T1 sequence (P16788 whole entry, the tested form may be a part): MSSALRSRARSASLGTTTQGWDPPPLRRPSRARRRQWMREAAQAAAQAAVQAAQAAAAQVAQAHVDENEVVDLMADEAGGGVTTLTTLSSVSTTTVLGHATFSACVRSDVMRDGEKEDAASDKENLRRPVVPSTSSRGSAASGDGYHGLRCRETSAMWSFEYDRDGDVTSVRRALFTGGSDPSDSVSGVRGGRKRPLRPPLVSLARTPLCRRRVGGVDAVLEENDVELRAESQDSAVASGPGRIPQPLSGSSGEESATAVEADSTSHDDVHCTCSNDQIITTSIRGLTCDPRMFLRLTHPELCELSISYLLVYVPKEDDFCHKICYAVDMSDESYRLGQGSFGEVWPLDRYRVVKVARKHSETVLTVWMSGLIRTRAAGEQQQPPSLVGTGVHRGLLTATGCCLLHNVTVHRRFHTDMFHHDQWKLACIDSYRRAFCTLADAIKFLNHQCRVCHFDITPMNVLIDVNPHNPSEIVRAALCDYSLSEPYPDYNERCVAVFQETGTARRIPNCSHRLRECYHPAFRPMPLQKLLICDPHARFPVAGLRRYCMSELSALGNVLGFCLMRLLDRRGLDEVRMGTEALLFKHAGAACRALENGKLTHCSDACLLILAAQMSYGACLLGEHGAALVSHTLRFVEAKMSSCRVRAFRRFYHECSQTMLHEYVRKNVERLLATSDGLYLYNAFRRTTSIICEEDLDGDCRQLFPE

For `O=c1c(O)c(-c2ccc(O)c(O)c2)oc2cc(O)cc(O)c12` [Quercetin], the activity at 10 µM ([1]; addition at 10 μM, histone phosphorylation, none = 100, read-out: Activity (%)) was 28% and the inhibition at 10 µM ([1]; agent at 10 μM) was > 70%.
For `Nc1ncnc2c1ncn2[C@@H]1O[C@H](COP(=O)(O)OP(=O)(O)O)[C@@H](O)[C@H]1O` [ADP], the activity at 5 µM ([1]; addition at 5 μM, histone phosphorylation, none = 100) was 166% and the “effect on UL97 protein kinase activity (in words)” value ([1]; histone phosphorylation, ADP at 5 μM) was “stimulatory effect”.
In the case of `Nc1nc2c(ncn2[C@@H]2O[C@H](CO)[C@@H](O)[C@H]2O)c(=O)[nH]1` [Guanosine], the activity at 10 µM [1] is reported as 125% and the “effect on GST-UL97 kinase activity (in words)” value ([1]; histone phosphorylation, cAMP 5 μM, guanosine 10 μM (Table 2)) is reported as “Neither cAMP nor guanosine showed an inhibitory effect”.
`NCCCNCCCCNCCCN` [spermine] was tested, and the activity at 100 µM [1] was 163% and the “effect on UL97-mediated phosphorylation of histone (in words)” value ([1]; 0.1 mM spermine) was “enhanced”.
Compound `Nc1ncnc2c1ncn2[C@@H]1O[C@H](COP(=O)(O)OP(=O)(O)OP(=O)(O)O)[C@@H](O)[C@H]1O` [ATP] has a Km ([2]; optimal divalent cation concentration, enzyme 4.7 ng/μl, read-out: Km determined for ATP as substrate) of 2 ± 0.5 µM.
With `N#CC(C#N)=Cc1ccc(O)c(O)c1` [Tyrphostin 23] the activity at 10 µM [1] was 27% and the inhibition at 10 µM [1] was 73%.
`Nc1nc2c(ncn2[C@@H]2O[C@H](COP(=O)(O)OP(=O)(O)OP(=O)(O)O)[C@@H](O)[C@H]2O)c(=O)[nH]1` [GTP] showed a Km ([2]; 10 mM Mg2+, read-out: Km for GTP as a phosphate donor) of 4 µM.
